Data as given in PubChem BioAssay (NCI).
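Briefly, cells in 96-well plates were exposed to five compound concentrations for 48 h, and endpoints were estimated by linear interpolation. TGI marks complete inhibition of growth.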

What was measured:
Assay in all cases: inhibition of tumour cell growth, NCI panel, 48 h
[1] = system: 786-0 renal
[2] = system: A498 renal
[3] = system: A549 NSCLC
[4] = system: ACHN renal
[5] = system: CCRF-CEM leukemia
[6] = system: COLO 205 colon
[7] = system: DLD-1 colon
[8] = system: DMS 114 small cell lung
[9] = system: EKVX NSCLC
[10] = system: HCC-2998 colon
[11] = system: HCT-116 colon
[12] = system: HCT-15 colon
[13] = system: HL-60(TB) leukemia
[14] = system: HOP-18 NSCLC
[15] = system: HOP-62 NSCLC
[16] = system: HOP-92 NSCLC
[17] = system: HT29 colon
[18] = system: IGROV1 ovarian
[19] = system: K-562 leukemia
[20] = system: KM20L2 colon
[21] = system: LXFL 529 NSCLC
[22] = system: M14 melanoma
[23] = system: M19-MEL melanoma
[24] = system: MALME-3M melanoma
[25] = system: MOLT-4 leukemia
[26] = system: NCI-H226 lung
[27] = system: NCI-H23 lung
[28] = system: NCI-H522 lung
[29] = system: OVCAR-4 ovarian
[30] = system: OVCAR-8 ovarian
[31] = system: RPMI-8226 leukemia
[32] = system: RXF 393 renal
[33] = system: SF-268 CNS
[34] = system: SF-295 CNS
[35] = system: SF-539 CNS
[36] = system: SK-MEL-28 melanoma
[37] = system: SK-MEL-5 melanoma
[38] = system: SK-OV-3 ovarian
[39] = system: SN12C renal
[40] = system: SNB-19 CNS
[41] = system: SNB-75 CNS
[42] = system: SNB-78 CNS
[43] = system: SR leukemia
[44] = system: SW-620 colon
[45] = system: U251 CNS
[46] = system: UACC-257 melanoma
[47] = system: UACC-62 melanoma
[48] = system: UO-31 renal
[49] = system: XF 498 CNS
[50] = system: CAKI-1 renal
[51] = system: DMS 273 small cell lung
[52] = system: KM12 colon
[53] = system: NCI-H460 lung
[54] = system: OVCAR-3 ovarian
[55] = system: OVCAR-5 ovarian
[56] = system: SK-MEL-2 melanoma
[57] = system: LOX IMVI melanoma
[58] = system: TK-10 renal
[59] = system: BT-549 breast
[60] = system: DU-145 prostate
[61] = system: HS 578T breast
[62] = system: MCF7 breast
[63] = system: MDA-MB-435
[64] = system: MDA-N
[65] = system: NCI/ADR-RES ovarian
[66] = system: PC-3 prostate
[67] = system: T-47D breast

Measured: TGI

Cc1occ2c1C(=O)CC1C2[C@@H](O)CC2C(C)(C)CCC[C@]12C (some centres undefined)
> 100 µM: [1] | [2] | [3] | [4] | [5] | [6] | [7] | [8] | [9] | [10] | [11] | [12] | [13] | [14] | [15] | [16] | [17] | [18] | [19] | [20] | [21] | [22] | [23] | [24] | [25] | [26] | [27] | [28] | [29] | [30] | [31] | [32] | [33] | [34] | [35] | [36] | [37] | [38] | [39] | [40] | [41] | [42] | [43] | [44] | [45] | [46] | [47] | [48] | [49]

CN1Cc2c(nc(-c3ccc(Br)cc3)c[n+]2[O-])N(C)C1
> 100 µM: [1] | [2] | [3] | [4] | [50] | [5] | [6] | [7] | [8] | [51] | [9] | [11] | [13] | [14] | [15] | [16] | [17] | [18] | [19] | [52] | [20] | [21] | [22] | [24] | [25] | [26] | [27] | [53] | [28] | [54] | [29] | [55] | [30] | [32] | [33] | [34] | [35] | [56] | [36] | [37] | [38] | [39] | [40] | [41] | [42] | [43] | [44] | [45] | [46] | [48] | [49]

COC1(C)C(=O)N2C1N(C(=O)OCc1ccccc1)CC2(C)C (centres undefined)
> 100 µM: [1] | [2] | [3] | [4] | [5] | [6] | [7] | [8] | [51] | [9] | [10] | [11] | [12] | [13] | [15] | [17] | [18] | [19] | [20] | [57] | [21] | [22] | [23] | [24] | [25] | [26] | [27] | [53] | [54] | [29] | [30] | [31] | [32] | [33] | [34] | [35] | [56] | [36] | [37] | [39] | [40] | [41] | [43] | [44] | [58] | [45] | [46] | [47] | [48] | [49]

N#CC(C#N)=C(N)/C(C#N)=C/c1ccc2[nH]ccc2c1
> 100 µM: [1] | [2] | [3] | [4] | [59] | [50] | [5] | [6] | [8] | [51] | [60] | [9] | [10] | [11] | [12] | [13] | [14] | [15] | [16] | [61] | [17] | [18] | [19] | [52] | [20] | [57] | [22] | [23] | [24] | [62] | [63] | [64] | [25] | [26] | [27] | [53] | [28] | [65] | [54] | [29] | [55] | [30] | [66] | [31] | [32] | [33] | [34] | [35] | [56] | [36] | [37] | [38] | [39] | [40] | [41] | [42] | [43] | [44] | [67] | [58] | [45] | [46] | [47] | [48]
